| SMILES | melting point [°C] |
| --- | --- |
| CC(C)CC1(C(CCN2C(=O)c3ccc(F)cc3C2=O)C(=O)NO)CCN(CCc2ccccc2)C1=O (configuration not stated) | 143 to 144 |
| COc1ccc(C=CC(=O)C2C(=O)CCC2=O)cc1O | 61 to 62 |
| CCOC(=O)C12CCNC(=O)CC1COC2=O (configuration not stated) | 137 to 138 |
| OC(CCCN1CC=C(c2ncco2)CC1)c1ccc(F)cc1 (configuration not stated) | 100 to 103 |
| N#Cc1ccc2c(c1)S(=O)(=O)c1ccc(Cl)cc1C=C2 | 228 to 230 |
| COC(=O)c1cc(CBr)cc(CBr)c1 | 64 to 70 |
| COCCC(=O)OC1(C(=O)COC(C)=O)CCC2C3CC(C)C4=CC(=O)C=CC4(C)C3C(O)CC21C (configuration not stated) | 162 |
| CCCCCS(=O)(=O)NC(=O)c1ccc2sc(C)c(Cc3ccc(Cl)cc3Cl)c2c1 | 158 to 159 |
| N#CC(CC(=O)CCl)(c1ccccc1)c1ccccc1 | 102 to 104 |
| CC(C)C[C@H](NC(=O)OC(C)(C)C)[C@H](O)CO | 58 to 59 |
| CCSc1nc2c(C(=O)OC)sc(-c3ccccc3)c2[nH]1 | 214 to 215 |
| O=C1NCCc2ccc(OCCCCN3CCN(c4cccc(Cl)c4Cl)CC3)nc2N1 | 197 to 199 |
| CCS(=O)(=O)c1c(CS(=O)(=O)C2=NOC(C)(C)C2)c(C(F)(F)F)nn1-c1ccccc1 | 158 to 160 |
| CO[C@@H](C(=O)N[C@H]1CC[C@@H](OC(=O)C2CCCCCC2)CNC1=O)[C@H](O)[C@@H](O)[C@H](O)/C=C/C(C)(C)C | 84 to 86 |
| CCOC(=O)C(=O)NNc1ccc(N)cc1 | 97 to 99 |
| N#Cc1ccc(C(=O)NCc2nn(-c3ccccc3Cl)c(-c3ccc(Cl)cc3)c2C#N)cc1 | 118 |
| CCN1C(=O)OCC1Cc1ccncc1 (configuration not stated) | 180 to 182 |
| O=C(O)C=Cc1cn(-c2ccccc2)nc1-c1ccc(Cl)cc1 | 227 to 228 |
| O=C(Nc1cccc(I)c1)C1CC1 | 112 |
| CCN1CCC(n2nnnc2C2(c3cc(C(C)C)ccc3OC)C=CC(O)=CC2O)CC1 (configuration not stated) | 144 to 147 |
| O=S(=O)(Nc1ccc(C2COc3cc(O)c(O)cc3C2)cc1)c1ccccc1 (configuration not stated) | 152 to 154 |
| O=C1c2c(-c3ccc(Cl)cc3)noc2CCC1CCCN1CCN(C(c2ccc(F)cc2)c2ccc(F)cc2)CC1 (configuration not stated) | 150 to 152 |
| N#CCCNC(=O)c1cccc(-c2ccc3c(c2)N(Cc2ccc(Cl)c(Cl)c2)CC3)c1 | 135 to 136 |
| CC(=O)N(C)c1cc([N+](=O)[O-])cc([N+](=O)[O-])c1 | 134 to 136 |
| O=C1OC(=O)c2cc3ncccc3c3cc([N+](=O)[O-])cc1c23 | > 300 |

| SMILES | melting point [°C] |
| --- | --- |
| Oc1ccc2c(c1)CCCC(c1ccccc1)=C2c1ccc(OCCCCCCl)cc1 | 200 to 202 |
| CC(C)(C)c1nn(-c2cc(O)c(Cl)cc2Cl)c(=O)s1 | 130 to 132 |
| O=C(NN1CCCCC1)NS(=O)(=O)C=Cc1ccccc1 | 175 to 177 |
| O=C(Cl)COc1nn(Cc2ccccc2)c2ccccc12 | 78 to 79 |
| CSc1ccc(NC(=O)CN2CCN(CCSc3nc4ccccc4o3)CC2)c(C)n1 | 116 to 117 |
| Cc1cc([N+](=O)[O-])ccc1NCC1CCCO1 (configuration not stated) | 56 to 58 |
| Nc1cccc(Oc2cc(Oc3cccc(N)c3)cc(C(F)(F)F)c2)c1 | 98 to 98.6 |
| COCC1CN(c2ccc(C3CCC4(CC3)OCCO4)cn2)C(=O)O1 (racemic) | 117 to 121 |
| CCOC(=O)c1ccc2c(c1)N(C(=O)c1ccccc1)Cc1ccccc1O2 | 149 to 150 |
| CCS(=O)(=O)NCc1cccc(-c2nc(=O)c3ccccc3s2)n1 | 170 to 171 |
| COc1ccc(C(=O)c2c(N)sc3c2CCC3)c2ccccc12 | 214 to 215 |
| Clc1nc(-n2cccn2)ncc1Cc1ccccc1 | 149 to 151 |
| CN(C)CCC1(c2ccccc2)Cc2ccccc2C(=O)O1 (configuration not stated) | 95 to 95.5 |
| CNc1ccc(CC(=O)C(=O)O)cc1 | 210 |
| Cn1c(-c2ccccc2)c2ccsc2nc1=O | 175 to 181 |
| CC(C)(C)OC(=O)Cc1ccc(CNC(=O)C2Cc3ccccc3N2S(=O)(=O)c2ccc(-c3cccc(C(F)(F)F)c3)cc2)cn1 (configuration not stated) | 70 |
| O=C1c2ccc3c4cccc5cccc(c6ccc(c2c36)C(=O)N1CCO)c54 | > 260 |
| CC(C)(C)C(=O)c1ccc(C(Br)Br)cc1 | 65 to 68 |
| CCN(c1cc(Cl)c(Cl)cc1Cl)C(C(=O)O)c1ccccc1OC (configuration not stated) | 92.7 |
| O=C(Nc1cccnc1)N1CCc2cc(I)ccc21 | 210 to 215 |
| C[C@@H](NC(=O)[C@@H](NC(=O)[C@H](C/C=C/c1ccc(-c2ccccc2)c(F)c1)CC(=O)OC(C)(C)C)C(C)(C)C)c1ccccc1 | 165 to 168 |
| O=C1CC(c2cccc(-n3ccnc3)c2)=Nc2ccc(C#Cc3ccccc3)cc2N1 | 193 to 196 |
| Cc1nc(C)n(-c2cc([C@@H]3C[C@H]3c3nc4ccccc4n3C)nc(C3CC3)n2)n1 (relative stereo) | 180 to 182 |
| COc1ccc2c(c1C=O)OCO2 | 124 |
| COc1ccc2cc(I)sc2c1 | 75 to 77 |

| SMILES | melting point [°C] |
| --- | --- |
| Cc1cc(-c2cc(C(F)(F)F)n3ncc(-c4ccnc(CO)c4)c3n2)ccc1C(F)(F)F | 231 |
| Cc1nc(C(=O)N2CCCC2)c2n1-c1ccc(Cl)cc1C(c1ccccc1F)=NC2 | 220 to 221 |
| COc1ccc(S(=O)(=O)Nc2cccc3c2Nc2ccc(F)c(O)c2CO3)cc1 | 219 to 232 |
| CCCCc1nn(Cc2ccccc2C(=O)O)c(=O)n1Cc1ccc(-c2ccccc2-c2nnn[nH]2)cc1 | > 106 |
| Cc1nc(-c2ccc(-c3cnc4[nH]c(=O)n(CC5CCCCC5)c4n3)cc2)n[nH]1 | 315 to 318 |
| Cn1c(-c2cccc3[nH]c(-c4ccncc4)cc23)n[nH]c1=O | > 300 |
| COc1ccc2c(c1)C(=O)N(CCN(C)CCN1C(=O)c3cc(OC)c(OC)cc3C(C)(C)C1=O)C(=O)C2(C)C | 118 to 120 |
| O=C(Nc1nnn[nH]1)c1cc2c(cc1[N+](=O)[O-])OCO2 | 279 |
| COc1ccc(CCNCC(O)c2ccccc2OC)cc1OC (configuration not stated) | 88 |
| Cn1cc(OS(C)(=O)=O)c(=O)c2ccc(OCC(F)(F)F)cc21 | 110 to 112 |
| Cc1ccc2cccc(OCc3c(Cl)ccc(OCCNC(=O)CCc4ccccc4)c3Cl)c2n1 | 112 to 114 |
| O=C(O)CNC(=O)c1ccc(C(=O)NS(=O)(=O)c2ccc(C(=O)NCCc3ccccc3)cc2)cn1 | 263 to 265 |
| COC(=O)c1ccc(OCCNC(=O)C2Cc3ccccc3N2S(=O)(=O)c2ccc(-c3cc(C(F)(F)F)ccc3Cl)cc2)cc1Cl (configuration not stated) | 70 to 76 |
| CCN(CC)CCc1nc(-c2ccc(OC)c(OC)c2)c2cc(OC)c(OC)cc2n1 | 164 to 166 |
| O=C(O)C(CCOc1ccccc1)CCOc1ccccc1 | 85 to 86 |
| CN1CC(C(=O)CN2CCCCC2)CC2c3cccc4[nH]cc(c34)CC21 (configuration not stated) | 168 to 170 |
| CN(C=O)C1CCN(CC2=Cc3ccccc32)CC1 | 86 to 88 |
| COc1ccc(C(=O)Nc2c(Cl)cncc2Cl)c2c3cc([N+](=O)[O-])ccc3n(C)c12 | > 250 |
| N=C(c1ccccc1)c1cc(F)cc(NC(=O)/C=C/c2ccccn2)c1 | 205 to 207 |
| CC(C)(C)OC(=O)C(CN(Cc1ccccc1)Cc1ccccc1)CC1(C(=O)NC(Cc2ccc(OC(C)(C)C)cc2)C(=O)OC(C)(C)C)CCCC1 (configuration not stated) | 82 to 87 |
| Cc1cc(C(Cl)=NO)ccc1Br | 77 to 78 |
| CC1CC(N)=NN1c1ccc(Cl)cn1 (configuration not stated) | 168 to 170 |
| CNC(=O)c1cnn(C2(C)CCCC2)c1C#N | 139 to 141 |
| O=C1C=CC(c2ccccc2)(c2ccccc2)[C@@H]2CN(Cc3ccccc3)C[C@H]12 (racemic) | 132 |
| Cc1ccc(N(C=C(C#N)C#N)N=C(C#N)C#N)cc1C | 162 to 163 |

| SMILES | melting point [°C] |
| --- | --- |
| CC(COC(=O)C(=O)Nc1nc(-c2ccccc2)cs1)c1ccccc1 (configuration not stated) | 140 to 141 |
| COC1=CC(=O)C2=C(C1=O)C(Cl)C(Cl)CC2 (configuration not stated) | 119 to 123 |
| CCCN1C(=O)COc2ccc(N3C(=O)C(C)=C(C)C3O)cc21 (configuration not stated) | 124 to 125 |
| OCCN(CCc1ccccc1)C(=S)NCCCc1ccncc1 | 106 to 107 |
| CCOC(=O)CCCCCCC(=O)Nc1ccc2c(c1)C(c1ccccc1)=N[C@@H](C)C(=O)N2C | 55 to 56 |
| O=C([C@H]1CN(Cc2ccccc2)CCN1C(=O)NC1CCCCC1)N(CCCn1ccnc1)Cc1ccccc1 | 89.1 |
| CC(=O)c1nc2ccc(S(=O)(=O)c3ccccc3)cc2cc1O | 179 to 180 |
| Cc1cccc2c1NC(=O)CC2(C)C | 120 |
| CC[C@H](C)[C@H](NC(=O)O[C@@H](CC(C)C)C(=O)OCc1ccccc1)C(=O)NC(C)C | 90 to 92 |
| O=C(Cc1ccccc1)c1cccnc1 | 61 to 62 |
| CCOC(=O)C1=CC(c2cccc(C(F)(F)F)c2)=NN(C(=O)OCC)C1N1CCOCC1 (configuration not stated) | 128 to 129 |
| Cc1nc(-c2cc(Cl)ccc2Cl)n2c1nnc1ccc(N3CCCCC3)cc12 | 158 to 160 |
| Cc1coc(-c2ccccc2)c(-c2ccc(Cl)c(Cl)c2)c1=O | 104 |
| Cc1oc(C=Cc2ccccc2Cl)nc1CC(=O)O | 148 to 149 |
| CCn1nc(-c2c(-c3ccccc3)nn3ccc(OC)cc23)ccc1=O | 148 to 149 |
| CC(C)c1ccc(C(=O)NC(C)c2sccc2Br)cc1 (configuration not stated) | 133 |
| CCCCNC(=O)c1nc2cnn(CC)c2nc1-c1ccccc1 | 127 to 128 |
| CC(C)(C)NC(CCOc1cccc2c1CC(=O)N2)OC(=O)Cc1ccccc1 (configuration not stated) | 112 to 115 |
| CCOc1ccc(Cc2cc([C@@H]3O[C@H](SC)[C@@H](O)[C@H](O)[C@H]3O)ccc2Cl)cc1 | 123 |
| CC1CCc2c(Cl)c(F)cc3c(=O)c(C(=O)O)cn1c23 (configuration not stated) | 297 to 298 |
| O=C(O)c1ccc(OCCCOc2ccccc2)cc1O | 161 |
| CCCC(N(NC(=O)OC(C)(C)C)C(=O)c1cc(C)cc(C)c1)C(C)(C)C (configuration not stated) | 116 to 118 |
